Measured values as given in ChEMBL document CHEMBL4002549, “Synthesis and evaluation of halogenated 12N-sulfonyl matrinic butanes as potential anti-coxsackievirus agents” (Eur J Med Chem, 2017).

Key:
[1] = Selectivity index, ratio of TC50 for African green monkey Vero cells to IC50 for Coxsackievirus B3 Nancy infected in African green monkey Vero cells; format: toxicity; conditions: read-out: Selectivity Index
[2] = Cytotoxicity against African green monkey Vero cells assessed as cytopathic effect after 48 hrs; format: cell-based; conditions: chlorocebus sabaeus, read-out: TC50
[3] = test system: Coxsackievirus B3; assay: Antiviral activity against Coxsackievirus B3 Nancy infected in African green monkey Vero cells assessed as inhibition of virus-induced cytopathic effect; format: functional; conditions: Enterovirus B
[4] = Acute toxicity in po dosed Kunming mouse measured for 7 days; format: organism-based; conditions: in vivo
[5] = Cmax in Sprague-Dawley rat at 25 mg/kg, po; format: ADME, organism-based; set-up: dose 25 mg/kg, route oral; conditions: in vivo
[6] = Selectivity index, ratio of TC50 for African green monkey Vero cells to IC50 for Coxsackievirus B4 JVB infected in African green monkey Vero cells; format: toxicity; conditions: read-out: Selectivity Index
[7] = Selectivity index, ratio of TC50 for African green monkey Vero cells to IC50 for Coxsackievirus B1 Conn 5 infected in African green monkey Vero cells; format: toxicity; conditions: read-out: Selectivity Index
[8] = Tmax in Sprague-Dawley rat at 25 mg/kg, po; format: ADME, organism-based; conditions: in vivo
[9] = test system: Coxsackievirus B5; assay: Antiviral activity against Coxsackievirus B5 Faulkner infected in African green monkey Vero cells assessed as inhibition of virus-induced cytopathic effect; format: functional; conditions: Enterovirus B
[10] = Selectivity index, ratio of TC50 for African green monkey Vero cells to IC50 for Coxsackievirus B6 Schmitt infected in African green monkey Vero cells; format: toxicity; conditions: read-out: Selectivity Index
[11] = Antiviral activity against Coxsackievirus B2 Ohio-1 infected in African green monkey Vero cells assessed as inhibition of virus-induced cytopathic effect; format: functional, Coxsackievirus B2 (strain Ohio-1); conditions: Enterovirus B
[12] = MRT in Sprague-Dawley rat at 25 mg/kg, po; format: ADME, organism-based; conditions: in vivo
[13] = Selectivity index, ratio of TC50 for African green monkey Vero cells to IC50 for Coxsackievirus B5 Faulkner infected in African green monkey Vero cells; format: toxicity; conditions: read-out: Selectivity Index
[14] = AUC (0 to infinity) in Sprague-Dawley rat at 25 mg/kg, po; format: ADME, organism-based; set-up: dose 25 mg/kg, route oral, time infinity; conditions: in vivo
[15] = test system: Coxsackievirus B1; assay: Antiviral activity against Coxsackievirus B1 Conn 5 infected in African green monkey Vero cells assessed as inhibition of virus-induced cytopathic effect; format: functional; conditions: Enterovirus B, Conn 5, Vero
[16] = test system: Coxsackievirus B4; assay: Antiviral activity against Coxsackievirus B4 JVB infected in African green monkey Vero cells assessed as inhibition of virus-induced cytopathic effect; format: functional; conditions: Enterovirus B
[17] = AUC (0 to t) in Sprague-Dawley rat at 25 mg/kg, po; format: ADME, organism-based; conditions: in vivo
[18] = Half life in Sprague-Dawley rat at 25 mg/kg, po; format: ADME, organism-based; conditions: in vivo
[19] = Antiviral activity against Coxsackievirus B6 Schmitt infected in African green monkey Vero cells assessed as inhibition of virus-induced cytopathic effect; format: functional, Coxsackievirus B6 (strain Schmitt); conditions: Enterovirus B
[20] = Selectivity index, ratio of TC50 for African green monkey Vero cells to IC50 for Coxsackievirus B2 Ohio-1 infected in African green monkey Vero cells; format: toxicity; conditions: read-out: Selectivity Index

SMILES | selectivity ratio [1] | CC50 at 48 h [2] [µM] | IC50 [3] [µM] | also measured
C1CCN2C[C@@H]3CCCN4CCC[C@@H]([C@H]34)[C@H]2C1 | 11.4 | 652 | 57 | –
NC(=O)c1cccc(S(=O)(=O)N2C[C@@H]3CCCN4CCC[C@@H]([C@H]34)[C@H]2CCO)c1 | > 53.1 | > 491 | 9.25 | –
N#Cc1ccccc1S(=O)(=O)N1C[C@@H]2CCCN3CCC[C@@H]([C@H]23)[C@H]1CCCl | > 244 | > 452 | 1.85 | LD50 at 168 h [4]: 348 mg/kg
CCCC[C@@H]1[C@H]2CCCN3CCC[C@@H](CN1S(=O)(=O)c1ccccc1C#N)[C@@H]23 | 111 | 116 to 200 | 1.04 | Cmax [5]: 3.07 µM; selectivity ratio [6]: > 38.9; selectivity ratio [7]: > 132; Tmax [8]: 1.33 h; IC50 [9]: 0.69 µM; selectivity ratio [10]: 75.3; IC50 [11]: 1.65 µM; MRT [12]: 4.05 h; selectivity ratio [13]: > 290; AUC(0-inf) [14]: 31.8 µM·h; IC50 [15]: 1.52 µM; IC50 [16]: 5.14 µM; AUC(0-t) [17]: 30.9 µM·h; half-life [18]: 2.48 h; IC50 [19]: 2.06 µM; selectivity ratio [20]: > 121; LD50 at 168 h [4]: > 500 mg/kg
CCCC[C@@H]1[C@H]2CCCN3CCC[C@@H](CN1S(=O)(=O)c1ccc(C(=O)OC)cc1)[C@@H]23 | 25.1 | 367 | 14.2 | –
N#Cc1ccccc1S(=O)(=O)N1C[C@@H]2CCCN3CCC[C@@H]([C@H]23)[C@H]1CCCCCl | 51.2 | 204 | 3.99 | LD50 at 168 h [4]: 348 mg/kg
O=S(=O)(c1ccccc1/C=N/O)N1C[C@@H]2CCCN3CCC[C@@H]([C@H]23)[C@H]1CCO | > 565 | > 491 | 0.87 | LD50 at 168 h [4]: < 500 mg/kg
CC(=O)c1ccc(S(=O)(=O)N2C[C@@H]3CCCN4CCC[C@@H]([C@H]34)[C@H]2CCCl)cc1 | 20.5 | 251 | 12.2 | –
CCCC[C@@H]1[C@H]2CCCN3CCC[C@@H](CN1S(=O)(=O)c1ccccc1C(=O)OC)[C@@H]23 | 44.1 | 320 | 7.24 | –
O=S(=O)(c1cccc(C(F)(F)F)c1)N1C[C@@H]2CCCN3CCC[C@@H]([C@H]23)[C@H]1CCCCF | 122 | 100 | 0.82 | –
O=S(=O)(c1ccc(C(F)(F)F)cc1)N1C[C@@H]2CCCN3CCC[C@@H]([C@H]23)[C@H]1CCCCF | 121 | 144 | 1.19 | –
N#Cc1cccc(S(=O)(=O)N2C[C@@H]3CCCN4CCC[C@@H]([C@H]34)[C@H]2CCF)c1 | > 6.84 | > 512 | 74.8 | –
CCCC[C@@H]1[C@H]2CCCN3CCC[C@@H](CN1S(=O)(=O)c1ccccc1[N+](=O)[O-])[C@@H]23 | 92.5 | 228 | 2.47 | –
N#Cc1cccc(S(=O)(=O)N2C[C@@H]3CCCN4CCC[C@@H]([C@H]34)[C@H]2CCCl)c1 | 97 | 313 | 3.23 | LD50 at 168 h [4]: 348 mg/kg
CCCC[C@@H]1[C@H]2CCCN3CCC[C@@H](CN1S(=O)(=O)c1ccc(N)cc1)[C@@H]23 | 3.6 | 82.9 | 23 | –
N#Cc1cccc(S(=O)(=O)N2C[C@@H]3CCCN4CCC[C@@H]([C@H]34)[C@H]2CCCCF)c1 | 61.4 | 276 | 4.49 | LD50 at 168 h [4]: 654 mg/kg
O=S(=O)(c1ccc(C(F)(F)F)cc1)N1C[C@@H]2CCCN3CCC[C@@H]([C@H]23)[C@H]1CCF | 27.6 | 358 | 13 | –
CCCC[C@@H]1[C@H]2CCCN3CCC[C@@H](CN1S(=O)(=O)c1cccc(C#N)c1)[C@@H]23 | 84.3 | 96.2 | 1.14 | –
CCCC[C@@H]1[C@H]2CCCN3CCC[C@@H](CN1S(=O)(=O)c1cccc(C(=O)OC)c1)[C@@H]23 | 50.9 | 73.7 | 1.45 | –
N#Cc1cccc(S(=O)(=O)N2C[C@@H]3CCCN4CCC[C@@H]([C@H]34)[C@H]2CCCCCl)c1 | 24.3 | 204 | 8.39 | –
NC(=O)c1ccc(S(=O)(=O)N2C[C@@H]3CCCN4CCC[C@@H]([C@H]34)[C@H]2CCO)cc1 | > 30.7 | > 491 | 16 | –
N#Cc1ccccc1S(=O)(=O)N1C[C@@H]2CCCN3CCC[C@@H]([C@H]23)[C@H]1CCCCF | 13 | 230 | 17.7 | LD50 at 168 h [4]: 560 mg/kg
CCCC[C@@H]1[C@H]2CCCN3CCC[C@@H](CN1S(=O)(=O)c1ccc(OC)cc1)[C@@H]23 | 16.6 | 96.2 | 5.8 | –
CCCC[C@@H]1[C@H]2CCCN3CCC[C@@H](CN1S(=O)(=O)c1ccc(NC(C)=O)cc1)[C@@H]23 | 38.9 | 96.2 | 2.47 | –
O=S(=O)(c1ccccc1C(F)(F)F)N1C[C@@H]2CCCN3CCC[C@@H]([C@H]23)[C@H]1CCCCF | 13.6 | 229 | 16.8 | –
N#Cc1ccc(S(=O)(=O)N2C[C@@H]3CCCN4CCC[C@@H]([C@H]34)[C@H]2CCCCF)cc1 | 36.7 | 276 | 7.51 | LD50 at 168 h [4]: 353 mg/kg
NC(=O)c1ncn([C@@H]2O[C@H](CO)[C@@H](O)[C@H]2O)n1 [RIBAVIRIN] | 11.8 to 16.8 | 6360 to 8200 | 379 to 695 | IC50 [9]: 3320 µM; IC50 [11]: > 500 µM; IC50 [15]: 2380 µM; IC50 [16]: > 500 µM; IC50 [19]: 2090 µM
